Measured values reported in ChEMBL document CHEMBL5257035, “Nucleoside Derived Antibiotics to Fight Microbial Drug Resistance: New Utilities for an Established Class of Drugs?” (J Med Chem, 2016).
pIC50, pKi: −log10 of the molar value. Values after ≈ are worked out from the molar mass of the structure shown.

Assays:
[1] = Inhibition of Bacillus stearothermophilus tyrosyl tRNA synthetase; parameters: species or system Geobacillus stearothermophilus
[2] = system: Candida albicans; experiment: […] activity against Candida albicans assessed as […] measured after 24 hrs by microtitre dilution method; assay type: functional
[3] = system: Pseudomonas aeruginosa; experiment: Antibacterial activity against Pseudomonas aeruginosa assessed as bacterial growth inhibition; assay type: functional
[4] = system: Pseudomonas aeruginosa; experiment: Antibacterial activity against Pseudomonas aeruginosa infected in mouse; assay type: functional
[5] = system: Pseudomonas aeruginosa; experiment: Antibacterial activity against Pseudomonas aeruginosa ATCC 27853 assessed as reduction in microbial growth by broth microdilution method; assay type: functional
[6] = system: Mycobacterium tuberculosis; experiment: Antimycobacterial activity against Mycobacterium tuberculosis H37Rv assessed as reduction in bacterial growth; assay type: functional
[7] = system: Candida albicans; experiment: Antifungal activity against wild type Candida albicans; assay type: functional
[8] = target: T1, Phospho-N-acetylmuramoyl-pentapeptide-transferase (Escherichia coli, UniProt E2QF15); experiment: Inhibition of MraY in Escherichia coli
T1 sequence (E2QF15 whole entry): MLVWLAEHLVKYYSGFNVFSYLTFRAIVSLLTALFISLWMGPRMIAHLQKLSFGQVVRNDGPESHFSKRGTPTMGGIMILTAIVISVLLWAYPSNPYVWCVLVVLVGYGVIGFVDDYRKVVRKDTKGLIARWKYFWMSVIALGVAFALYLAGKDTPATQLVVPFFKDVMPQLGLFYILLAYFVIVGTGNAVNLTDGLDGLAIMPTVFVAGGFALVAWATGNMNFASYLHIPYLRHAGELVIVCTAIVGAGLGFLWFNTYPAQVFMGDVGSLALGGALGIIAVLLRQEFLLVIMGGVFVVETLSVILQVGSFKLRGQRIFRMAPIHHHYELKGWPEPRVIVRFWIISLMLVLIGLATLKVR

[9] = Inhibition of Candida albicans chitin synthase
[10] = system: Candida albicans; experiment: Inhibition of Candida albicans chitin synthase at 1 uM relative to control
[11] = system: Pseudomonas aeruginosa; experiment: Antibacterial activity against Pseudomonas aeruginosa ATCC 27853 assessed as bacterial growth inhibition at 32 ug/ml measured after 16 hrs by broth microdilution method; assay type: functional; settings: dose 32 µg/ml
[12] = target: Proline--tRNA ligase (Escherichia coli, UniProt P16659); experiment: Binding affinity to Escherichia coli K12 Prolyl-tRNA synthetase
[13] = system: Candida albicans; experiment: Antifungal activity against Candida albicans ATCC 10231 assessed as reduction in fungal growth incubated for 12 hrs by broth microdilution method; assay type: functional
[14] = Inhibition of Candida albicans SC5314 chitin synthase using UDP-GlcNAc as substrate incubated for 1 hr
[15] = system: Staphylococcus aureus; experiment: Antimicrobial activity against methicillin-resistant Staphylococcus aureus 10925 assessed as reduction in microbial growth by broth microdilution method; assay type: functional
[16] = system: Candida albicans; experiment: Antifungal activity against Candida albicans B-311 assessed as reduction fungal growth incubated for 16 hrs by microbroth dilution method; assay type: functional
[17] = target: Phospho-N-acetylmuramoyl-pentapeptide-transferase (Bacillus subtilis (strain 168)) (UniProt Q03521); experiment: Inhibition of Bacillus subtilis MraY at 2.3 uM relative to control
[18] = target: Phospho-N-acetylmuramoyl-pentapeptide-transferase (Staphylococcus aureus, UniProt P0C1R8); experiment: Inhibition of Staphylococcus aureus MraY
[19] = system: Streptococcus pyogenes; experiment: Antimicrobial activity against Streptococcus pyogenes ATCC 12344 assessed as reduction in microbial growth by broth microdilution method; assay type: functional
[20] = system: Pseudomonas aeruginosa; experiment: Antimicrobial activity against Pseudomonas aeruginosa ATCC 27853 assessed as inhibition of microbial growth
[21] = target: Phospho-N-acetylmuramoyl-pentapeptide-transferase (Bacillus subtilis (strain 168), UniProt Q03521); experiment: Inhibition of Bacillus subtilis MraY
Sequence of Phospho-N-acetylmuramoyl-pentapeptide-transferase (Bacillus subtilis (strain 168), UniProt Q03521) (Q03521 whole entry): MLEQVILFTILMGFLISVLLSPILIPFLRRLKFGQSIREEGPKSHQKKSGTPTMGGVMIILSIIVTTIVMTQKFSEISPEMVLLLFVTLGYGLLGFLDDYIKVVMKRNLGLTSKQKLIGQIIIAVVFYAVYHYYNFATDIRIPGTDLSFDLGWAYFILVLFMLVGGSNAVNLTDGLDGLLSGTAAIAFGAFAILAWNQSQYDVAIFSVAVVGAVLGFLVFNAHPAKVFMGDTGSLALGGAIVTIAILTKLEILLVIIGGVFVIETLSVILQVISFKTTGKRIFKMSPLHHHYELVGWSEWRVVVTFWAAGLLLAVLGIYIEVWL

Sequence of Proline--tRNA ligase (P16659 whole entry): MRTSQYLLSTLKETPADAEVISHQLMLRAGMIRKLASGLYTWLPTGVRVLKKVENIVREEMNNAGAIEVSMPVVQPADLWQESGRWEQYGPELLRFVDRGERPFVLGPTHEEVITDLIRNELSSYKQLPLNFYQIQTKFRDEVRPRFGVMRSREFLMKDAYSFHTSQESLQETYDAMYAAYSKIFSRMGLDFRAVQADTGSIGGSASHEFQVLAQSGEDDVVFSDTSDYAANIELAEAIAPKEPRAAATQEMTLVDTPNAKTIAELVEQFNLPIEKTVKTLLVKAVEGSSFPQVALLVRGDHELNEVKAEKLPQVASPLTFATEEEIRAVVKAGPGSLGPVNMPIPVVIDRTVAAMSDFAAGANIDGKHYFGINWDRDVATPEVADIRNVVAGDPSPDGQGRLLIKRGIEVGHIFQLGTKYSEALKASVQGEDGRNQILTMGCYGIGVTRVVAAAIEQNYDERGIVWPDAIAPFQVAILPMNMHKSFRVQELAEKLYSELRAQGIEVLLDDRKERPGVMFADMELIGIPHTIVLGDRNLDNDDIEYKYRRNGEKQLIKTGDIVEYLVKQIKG
Sequence of Phospho-N-acetylmuramoyl-pentapeptide-transferase (Bacillus subtilis (strain 168)) (Q03521 whole entry): as the sequence (Q03521 whole entry) above
Sequence of Phospho-N-acetylmuramoyl-pentapeptide-transferase (Staphylococcus aureus, UniProt P0C1R8) (P0C1R8 whole entry): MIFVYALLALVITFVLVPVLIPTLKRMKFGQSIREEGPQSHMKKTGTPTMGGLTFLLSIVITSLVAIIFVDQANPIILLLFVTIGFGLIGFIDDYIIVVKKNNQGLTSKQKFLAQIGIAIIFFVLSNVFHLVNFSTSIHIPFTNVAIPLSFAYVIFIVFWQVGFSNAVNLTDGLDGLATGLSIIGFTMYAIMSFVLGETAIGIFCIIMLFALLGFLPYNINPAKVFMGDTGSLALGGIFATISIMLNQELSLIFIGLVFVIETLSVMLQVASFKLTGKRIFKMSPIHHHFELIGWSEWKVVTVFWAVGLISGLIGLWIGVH

## Nc1ncnc2c1ncn2[C@@H]1O[C@H](COP(=O)(O)OCC(N)Cc2ccc(O)cc2)[C@@H](O)[C@H]1O (stereo partly specified)
[1]
  pKi: 7.96

## NC(=O)OC[C@H](O)[C@@H](O)[C@H](N)C(=O)N[C@H](C(=O)O)[C@H]1O[C@@H](n2cc(C=O)[nH]c2=O)[C@H](O)[C@@H]1O
[2]
  MIC: 6 µg/mL (≈ 12.6 µM)

## CSCC[C@H](NC(=O)NC(Cc1cccc(O)c1)C(=O)O)C(=O)NC(CN(C)C(=O)[C@@H](N)C(N)Cc1cccc(O)c1)C(=O)N/C=C1/C[C@@H](O)[C@H](n2ccc(=O)[nH]c2=O)O1 (stereo partly specified)
[3]
  MIC: 1.5 µg/mL (≈ 1.75 µM)
[4]
  ED50: 0.05 mg/kg

## CN(C[C@H](NC(=O)[C@H](CC[S+](C)[O-])NC(=O)N[C@@H](Cc1c[nH]c2ccccc12)C(=O)O)C(=O)N/C=C1/C[C@@H](O)[C@H](n2ccc(=O)[nH]c2=O)O1)C(=O)[C@@H](N)Cc1cccc(O)c1 (stereo partly specified)
[5]
  MIC: 8 µg/mL
[6]
  MIC: 8 µg/mL (≈ 9.24 µM)

## NC[C@H]1O[C@@H](O[C@@H](Cc2cn(CCCCCCCCCCc3ccccc3)nn2)[C@H]2O[C@@H](n3ccc(=O)[nH]c3=O)[C@H](O)[C@@H]2O)[C@H](O)[C@@H]1O
[7]
  MIC: 20 µg/mL (≈ 29.7 µM)
[8]
  pIC50: 5.10

## O=C(NC[C@@H]1O[C@H](n2ccc(=O)[nH]c2=O)[C@@H](O)[C@H]1O)OCCOC(=O)NC[C@H]1O[C@@H](n2ccc(=O)[nH]c2=O)[C@H](O)[C@@H]1O
[9]
  pIC50: 5.96
[10]
  inhibition: 32%

## CCCCCCCCCCCCCCCCC(=O)[C@H](NCCCC(=O)NCCCCNC(=N)N)[C@H](O[C@@H]1O[C@H](CN)[C@@H](O)[C@H]1O)[C@H]1O[C@@H](n2ccc(=O)[nH]c2=O)[C@H](O)[C@@H]1O
[11]
  MIC: 4 µg/mL (≈ 4.68 µM)

## Nc1ncnc2c1ncn2[C@@H]1O[C@H](COS(=O)(=O)NC(=O)[C@H]2CCCN2)[C@@H](O)[C@H]1O
[12]
  pKi: 6.31

## CC1(C)O[C@@H]2[C@H](O1)[C@@H](Cn1cc(COc3ccccc3)nn1)O[C@H]2n1ccc(=O)[nH]c1=O
[13]
  MIC: 8 µg/mL (≈ 18.1 µM)

## N[C@@H](Cc1cc2ccccc2c2ccccc12)C(=O)N[C@@H](C(=O)O)[C@H]1O[C@@H](n2ccc(=O)[nH]c2=O)[C@H](O)[C@@H]1O
[14]
  IC50: 0.31 µg/mL (≈ 0.58 µM)

## Nc1ccn([C@@H]2O[C@H](CO)[C@@H](O)C2(F)F)c(=O)n1 [GEMCITABINE]
[15]
  MIC: 0.002 µg/mL

## CC(C)C[C@H](N)C(=O)N[C@H](C(=O)N[C@@H](C(=O)O)[C@H]1OC(n2cc(C=O)[nH]c2=O)[C@H](O)[C@@H]1O)[C@H](C)[C@H](O)c1cc(O)ccn1 (stereo partly specified)
[16]
  MIC: 83 µg/mL (≈ 136 µM)

## C[C@H](N)C(=O)N(C)CCOC[C@H]1O[C@@H](n2ccc(=O)[nH]c2=O)[C@H](O)[C@@H]1O
[17]
  inhibition: 97%

## COC(=O)C1=C[C@@H](O)[C@@H](O)[C@H](O[C@@H](C(N)=O)[C@H]2O[C@@H](n3ccc(=O)[nH]c3=O)[C@H](O)[C@@H]2OC)O1
[18]
  pIC50: 7.57

## O=c1[nH]c(=O)n([C@H]2C[C@H](O)[C@@H](CO)O2)cc1F [FLOXURIDINE]
[19]
  MIC: 0.003 µg/mL

## C[C@@H](NC(=O)NC(Cc1cccc(O)c1)C(=O)O)C(=O)N[C@H](C(=O)N/C=C1/C[C@@H](O)[C@H](n2ccc(=O)[nH]c2=O)O1)[C@H](C)N(C)C(=O)[C@@H](N)C(N)c1cccc(O)c1 (stereo partly specified)
[20]
  MIC: 32 µg/mL

## C[C@H](N)C(=O)N[C@@H](C)[C@H](NC(=O)[C@H](C)NC(=O)N[C@@H](Cc1c[nH]c2ccccc12)C(=O)O)C(=O)N/C=C1\O[C@@H](n2ccc(=O)[nH]c2=O)[C@H](O)[C@@H]1O
[21]
  pIC50: 7.38
